Experimental data from ChEMBL document CHEMBL1201862, “PubChem BioAssay data set” (2004).
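96-well plates; 48 h exposure; 5 concentrations. Endpoints by linear interpolation between flanking doses. Not reached: highest tested concentration assigned. GI50: concentration for 50% inhibition of growth.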 Activity calls are given as the source filed them. Cut-off read from the data, not from the text of the source: active = GI50 up to about 1.1 µM and inactive = higher.

Legend:
Assay in all cases: NCI tumour cell line growth inhibition, 48 h
SNB-78 = tested on: SNB-78
HCC 2998 = tested on: HCC 2998
NCI-H522 = tested on: NCI-H522
Malme-3M = tested on: Malme-3M
UACC-257 = tested on: UACC-257
NCI-H23 = tested on: NCI-H23
RPMI-8226 = tested on: RPMI-8226
KM-20L2 = tested on: KM-20L2
DMS-114 = tested on: DMS-114
SK-MEL-2 = tested on: SK-MEL-2
UACC-62 = tested on: UACC-62
CCRF-CEM = tested on: CCRF-CEM
SW-620 = tested on: SW-620
TK-10 = tested on: TK-10
HCT-15 = tested on: HCT-15
HOP-92 = tested on: HOP-92
M14 = tested on: M14
OVCAR-5 = tested on: OVCAR-5
HL-60 = tested on: HL-60
A498 = tested on: A498
HT-29 = tested on: HT-29
SK-OV-3 = tested on: SK-OV-3
MOLT-4 = tested on: MOLT-4
COLO 205 = tested on: COLO 205
SK-MEL-28 = tested on: SK-MEL-28
OVCAR-3 = tested on: OVCAR-3
EKVX = tested on: EKVX
SF-268 = tested on: SF-268
LOX IMVI = tested on: LOX IMVI
ACHN = tested on: ACHN
OVCAR-4 = tested on: OVCAR-4
SF-295 = tested on: SF-295
A549 = tested on: A549
DLD-1 = tested on: DLD-1
RXF 631 = tested on: RXF 631
OVCAR-8 = tested on: OVCAR-8
NCI-H460 = tested on: NCI-H460
HOP-62 = tested on: HOP-62
KM12 = tested on: KM12
UO-31 = tested on: UO-31
SN12C = tested on: SN12C
SF-539 = tested on: SF-539
SNB-19 = tested on: SNB-19
XF498 = tested on: XF498
NCI-H226 = tested on: NCI-H226
K562 = tested on: K562
LXFL 529 = tested on: LXFL 529
U-251 = tested on: U-251
786-0 = tested on: 786-0
HCT-116 = tested on: HCT-116
DMS-273 = tested on: DMS-273
CAKI-1 = tested on: CAKI-1
IGROV-1 = tested on: IGROV-1
HOP-18 = tested on: HOP-18
SK-MEL-5 = tested on: SK-MEL-5
SNB-75 = tested on: SNB-75
RXF 393 = tested on: RXF 393
M19-MEL = tested on: M19-MEL

Measured: GI50

COC(=O)NN1C(C)=C(C(=O)OC)C2(CCOC2=O)C1(C)O (stereo unspecified)
inactive: SNB-78 > 100 µM | HCC 2998 > 100 µM | NCI-H522 > 100 µM | Malme-3M > 100 µM | UACC-257 > 100 µM | NCI-H23 > 100 µM | RPMI-8226 > 100 µM | KM-20L2 > 100 µM | DMS-114 > 100 µM | SK-MEL-2 > 100 µM | UACC-62 > 100 µM | CCRF-CEM > 100 µM | SW-620 > 100 µM | TK-10 > 100 µM | HOP-92 > 100 µM | M14 > 100 µM | OVCAR-5 > 100 µM | HL-60 > 100 µM | A498 > 100 µM | HT-29 > 100 µM | SK-OV-3 > 100 µM | MOLT-4 > 100 µM | COLO 205 > 100 µM | SK-MEL-28 > 100 µM | OVCAR-3 > 100 µM | EKVX > 100 µM | SF-268 > 100 µM | LOX IMVI > 100 µM | ACHN > 100 µM | OVCAR-4 > 100 µM | SF-295 > 100 µM | A549 > 100 µM | DLD-1 > 100 µM | RXF 631 > 100 µM | OVCAR-8 > 100 µM | NCI-H460 > 100 µM | HOP-62 > 100 µM | KM12 > 100 µM | UO-31 > 100 µM | SN12C > 100 µM | SF-539 > 100 µM | SNB-19 > 100 µM | XF498 > 100 µM | NCI-H226 > 100 µM | K562 > 100 µM | LXFL 529 > 100 µM | U-251 > 100 µM | 786-0 > 100 µM | HCT-116 > 100 µM | DMS-273 > 100 µM | CAKI-1 > 100 µM | IGROV-1 > 100 µM | HOP-18 > 100 µM
> 100 µM: HCT-15

Cc1cc2c(c(C#N)c1C)NC(=O)C(CC(=O)O)C2=O (stereo unspecified)
> 100 µM: HCT-15
inactive: SK-MEL-5 > 100 µM | SNB-78 > 100 µM | HCC 2998 > 100 µM | SNB-75 > 100 µM | Malme-3M > 100 µM | UACC-257 > 100 µM | NCI-H23 > 100 µM | RPMI-8226 > 100 µM | KM-20L2 > 100 µM | DMS-114 > 100 µM | SK-MEL-2 > 100 µM | UACC-62 > 100 µM | CCRF-CEM > 100 µM | RXF 393 > 100 µM | SW-620 > 100 µM | TK-10 > 100 µM | HOP-92 > 100 µM | M14 > 100 µM | OVCAR-5 > 100 µM | M19-MEL > 100 µM | HL-60 > 100 µM | A498 > 100 µM | HT-29 > 100 µM | SK-OV-3 > 100 µM | MOLT-4 > 100 µM | COLO 205 > 100 µM | SK-MEL-28 > 100 µM | OVCAR-3 > 100 µM | EKVX > 100 µM | SF-268 > 100 µM | LOX IMVI > 100 µM | ACHN > 100 µM | OVCAR-4 > 100 µM | SF-295 > 100 µM | A549 > 100 µM | DLD-1 > 100 µM | RXF 631 > 100 µM | OVCAR-8 > 100 µM | NCI-H460 > 100 µM | HOP-62 > 100 µM | KM12 > 100 µM | UO-31 > 100 µM | SN12C > 100 µM | SF-539 > 100 µM | XF498 > 100 µM | NCI-H226 > 100 µM | K562 > 100 µM | LXFL 529 > 100 µM | U-251 > 100 µM | 786-0 > 100 µM | HCT-116 > 100 µM | DMS-273 > 100 µM | CAKI-1 > 100 µM | IGROV-1 > 100 µM | HOP-18 > 100 µM

COc1cc2c(cc1OC)C(=O)Cc1ccc(OC)c(OC)c1CN(C)CC2
> 100 µM: HCT-15
inactive: SK-MEL-5 > 100 µM | SNB-78 > 100 µM | HCC 2998 > 100 µM | SNB-75 > 100 µM | NCI-H522 > 100 µM | Malme-3M > 100 µM | UACC-257 > 100 µM | NCI-H23 > 100 µM | RPMI-8226 > 100 µM | KM-20L2 > 100 µM | DMS-114 > 100 µM | SK-MEL-2 > 100 µM | UACC-62 > 100 µM | CCRF-CEM > 100 µM | SW-620 > 100 µM | TK-10 > 100 µM | HOP-92 20.5 µM | M14 > 100 µM | OVCAR-5 > 100 µM | M19-MEL > 100 µM | A498 11.9 µM | HT-29 > 100 µM | SK-OV-3 > 100 µM | MOLT-4 > 100 µM | COLO 205 > 100 µM | SK-MEL-28 > 100 µM | OVCAR-3 > 100 µM | EKVX > 100 µM | SF-268 > 100 µM | LOX IMVI > 100 µM | ACHN 27.7 µM | OVCAR-4 > 100 µM | A549 > 100 µM | DLD-1 > 100 µM | RXF 631 > 100 µM | OVCAR-8 > 100 µM | NCI-H460 15.6 µM | HOP-62 > 100 µM | KM12 > 100 µM | UO-31 > 100 µM | SN12C > 100 µM | SF-539 > 100 µM | SNB-19 > 100 µM | XF498 24.5 µM | NCI-H226 > 100 µM | K562 > 100 µM | LXFL 529 > 100 µM | U-251 > 100 µM | 786-0 > 100 µM | HCT-116 > 100 µM | DMS-273 > 100 µM | CAKI-1 > 100 µM | IGROV-1 > 100 µM | HOP-18 32.4 µM

COC1C(CN[N+](=O)CC2OC3OC(C)(C)OC3C2OC)OC2OC(C)(C)OC21 (stereo unspecified)
> 100 µM: HCT-15
inactive: SK-MEL-5 > 100 µM | SNB-78 > 100 µM | HCC 2998 > 100 µM | SNB-75 > 100 µM | Malme-3M > 100 µM | UACC-257 > 100 µM | NCI-H23 > 100 µM | DMS-114 > 100 µM | SK-MEL-2 > 100 µM | UACC-62 > 100 µM | CCRF-CEM > 100 µM | RXF 393 > 100 µM | SW-620 > 100 µM | TK-10 > 100 µM | HOP-92 > 100 µM | M14 > 100 µM | OVCAR-5 > 100 µM | M19-MEL > 100 µM | HL-60 > 100 µM | A498 > 100 µM | HT-29 > 100 µM | SK-OV-3 > 100 µM | MOLT-4 > 100 µM | COLO 205 > 100 µM | SK-MEL-28 > 100 µM | OVCAR-3 > 100 µM | EKVX > 100 µM | SF-268 > 100 µM | LOX IMVI > 100 µM | ACHN > 100 µM | OVCAR-4 > 100 µM | SF-295 > 100 µM | A549 > 100 µM | DLD-1 > 100 µM | RXF 631 > 100 µM | OVCAR-8 > 100 µM | NCI-H460 > 100 µM | HOP-62 > 100 µM | KM12 > 100 µM | UO-31 > 100 µM | SN12C > 100 µM | SF-539 > 100 µM | SNB-19 > 100 µM | NCI-H226 > 100 µM | K562 > 10 µM | U-251 > 100 µM | 786-0 > 100 µM | HCT-116 > 100 µM | DMS-273 > 100 µM | CAKI-1 > 100 µM | IGROV-1 > 100 µM | HOP-18 > 100 µM

COc1cc2c(cc1OC)/C(=C\c1ccccc1N)C(=O)OC2
inactive: SK-MEL-5 17.8 µM | HCC 2998 23.3 µM | SNB-75 10.3 µM | NCI-H522 1.56 µM | Malme-3M 13.9 µM | UACC-257 15.1 µM | NCI-H23 16.1 µM | RPMI-8226 1.84 µM | KM-20L2 19.1 µM | DMS-114 16.3 µM | SK-MEL-2 12.1 µM | UACC-62 16.3 µM | CCRF-CEM 2.05 µM | RXF 393 3.79 µM | SW-620 4 µM | TK-10 20.6 µM | HOP-92 12.4 µM | M14 19.3 µM | OVCAR-5 20 µM | M19-MEL 15.2 µM | HL-60 3.3 µM | HT-29 11.8 µM | SK-OV-3 27.7 µM | MOLT-4 2.31 µM | COLO 205 12 µM | SK-MEL-28 17 µM | OVCAR-3 18.7 µM | EKVX 25 µM | SF-268 20.9 µM | LOX IMVI 2.11 µM | ACHN 18.3 µM | OVCAR-4 14.9 µM | SF-295 15.1 µM | A549 32.1 µM | DLD-1 15 µM | RXF 631 9.75 µM | OVCAR-8 > 10 µM | NCI-H460 14.7 µM | HOP-62 23.3 µM | KM12 13.9 µM | UO-31 15.5 µM | SN12C 13.2 µM | SF-539 15.7 µM | SNB-19 16.7 µM | K562 3.02 µM | LXFL 529 4.65 µM | U-251 18.5 µM | 786-0 3.07 µM | DMS-273 10.7 µM | CAKI-1 12 µM | IGROV-1 18.6 µM | HOP-18 13.8 µM
7.19 µM: HCT-15
